Four compounds from US5817669A, “Compounds, processes for the preparation thereof and anti-tumor agents” (Dainippon Pharmaceutical Co., Ltd., priority 1994, dated 1998) can be followed below.

The subject of assay [1] is WiDr human colorectal cancer. In words: In vitro anti-tumor activity against WiDr human colorectal cancer (MTT). The assay is classed as cell-based. The note with it: 72 h, MTT, read-out: IC50. The protocol:
(§1) A culture medium containing 500 to 2,000 human cancer cells was put in an amount of 0.1 ml in each well of 96-well plate, and the cells were cultured for 20 hours under a condition of 37° C. and 5% carbon dioxide gas in air. After the culturing, a solution of test compounds of predetermined concentration was added, and then, the cells were cultured for further 72 hours. After the culturing, an MTT (5 mg/ml) solution was added in an amount of 0.01 ml in the respective wells, and the cells were cultured for further 4 hours. The supernatants of the culture medium were removed by suction, and then, 0.1 ml of dimethyl sulfoxide was put in respective well to dissolve the formed formazan, and, moreover, 0.1 ml of dimethyl sulfoxide was added.

The subject of assay [2] is KB human nasopharynx cancer. In words: In vitro anti-tumor activity against KB human nasopharynx cancer (MTT). The assay is classed as cell-based. The note with it: KB, 72 h, MTT, read-out: IC50. The protocol: as §1
A further assay relates to HMV2 human melanoma. Kind of assay: In vitro anti-tumor activity against HMV-2 human melanoma (MTT). The assay is classed as cell-based. Particulars: HMV-2, 72 h, MTT, read-out: IC50. How it is done:
as §1

The test system of assay [3] is colon 26 murine tumor cells. In words: Tumor growth inhibition effect on colon 26 murine tumor cells implanted mice. The assay is classed as in vivo, SLC: CDF1 mice. Particulars: Mus musculus, Colon 26, 504 h, ip, days 1-9, day 21 or 22, read-out: Tumor growth inhibition rate IR (%); for inhibition in vivo at 1.56 mg/kg: 1.56 mg/kg once a day. How it is done: A 2% brei of colon 26 murine tumor cells was intracutaneously implanted each 0.1 ml in the abdominal part of SLC: CDF1 female mice (7 to 9 weeks old, 7 animals per one group). […] The obtained solutions were intraperitoneally (ip) administered each 0.2 ml once a day, from the day (1st day) following the implantation to the 9th day. On the 21st or 22nd day after the implantation, tumor weight was estimated from tumor diameters, and thus, the tumor growth inhibition rate (IR %) of the drug administered group in comparison with the control group was calculated according to the following equation. IR (%)=[1-{(MTW in the treated group)/(MTW in the control group)}]×10 0 MTW: mean tumor weight

The subject of assay [4] is murine P388 lymphocytic leukemia cells. Kind of assay: Increases in life span of mice implanted with murine P388 lymphocytic leukemia cells. The assay is classed as in vivo, SLC: BDF1 mice. The note with it: ip; for ILS at 3.13 mg/kg / ILS at 12.5 mg/kg / ILS at 50 mg/kg / ILS at 1.56 mg/kg / ILS at 6.25 mg/kg / ILS at 25 mg/kg / ILS at 0.78 mg/kg: Mus musculus, P388, ip, 720 h. How it is done:
1×10^6 murine P388 lymphocytic leukemia cells were intraperitoneally implanted in each of SLC: BDF1 mice (8 to 10 weeks old, female, 7 animals per one group). A test compound (drug) was either dissolved in 0.1 N--NaOH or suspended in 0.4% carboxymethylcellulose solution, and the resultant solution or suspension was diluted with distilled water or 0.4% carboxymethylcellulose solution so as to give predetermined concentrations for administration. The obtained solution was intraperitoneally (ip) administered twice, namely on the day following the implantation (1st day) and the 5th day, each 0.2 ml. The life and death of the mice were observed over a period of 30 days, and the median survival time (hereinafter referred to as MST) was determined for each group, and, thus, the increase in life span (ILS; %) was calculated according to the following equation:
ILS (%)=[{(MST of the test group)/(MST of the control group)}-1]×100
Drug effect was judged in the following manner, according to the criterion of U.S. National Cancer Institute (NCI):
ILS=75% or higher: ++ (remarkably effective);
20 to 74%: + (effective);
19% or lower: - (ineffective)

Assay [5] deals with AZ521 human stomach cancer. Kind of assay: In vitro anti-tumor activity against AZ-521 human stomach cancer (MTT). The assay is classed as cell-based. The note with it: AZ-521, 72 h, MTT, read-out: IC50. How it is done:
as §1

Assay [6] has as its system MKN45 human stomach cancer. In words: In vitro anti-tumor activity against MKN45 human stomach cancer (MTT). The assay is classed as cell-based. Particulars: MKN-45, MKN45, 72 h, MTT, read-out: IC50. How it is done: as §1
The next assay concerns A427 human lung cancer. In words: In vitro anti-tumor activity against A-427 human lung cancer (MTT). The assay is classed as cell-based. Particulars: A-427, 72 h, MTT, read-out: IC50. The protocol:
as §1

For assay [7], the system named is murine P388 lymphocytic leukemia cells. Kind of assay: In vitro anti-tumor activity against murine P388 lymphocytic leukemia cells (MTT, 72 h). The assay is classed as cell-based. Particulars: Mus musculus; murine P388 cells, 72 h, MTT; read-out: IC50 (50% proliferation inhibitory concentration). How it is done:
Test compounds were tested for anti-tumor activity according to MTT [3-(4,5-dimethylthiazol-2-yl)-2,5-diphenyltetrazolium bromide] method, using murine P388 lymphocytic leukemia cells. […] The culture medium was centrifuged (4° C., 2,000 rpm for 20 minutes), and thus, the supernatants were removed by suction. Then, 0.1 ml of dimethyl sulfoxide was put in each well to dissolve the formed formazan, and, subsequently, another 0.1 ml of dimethyl sulfoxide was added. The absorbance (OD) of each of the obtained solutions was measured by use of Multiskan Bichromatic (main wavelength 570 nm, sub-wavelength 690 nm). […] IC50 :μg/ml) were calculated by the least squares method.

A further assay has as its system C33A human cervix cancer. Kind of assay: In vitro anti-tumor activity against C-33A human cervix cancer (MTT). The assay is classed as cell-based. The note with it: C-33A, 72 h, MTT, read-out: IC50. How it is done: as §1
[8] abbreviates: NCI criterion, 3.13 mg/kg, read-out: Evaluation.
Setting [9] is: NCI criterion, 12.5 mg/kg, read-out: Evaluation.
Setting [10] is: NCI criterion, read-out: Evaluation.
Where [11] appears, read: 3.13 mg/kg, days 1 and 5, in suspension, read-out: ILS (%) (in suspension).
The mark [12] stands for this setting: 12.5 mg/kg, days 1 and 5, in suspension, read-out: ILS (%) (in suspension).
[13] abbreviates: days 1 and 5, in suspension, read-out: ILS (%) (in suspension).
[14] abbreviates: days 1 and 5, in solution, read-out: ILS (%) (in solution).

Values after ≈ are worked out from the molar mass of the structure shown. Like-named read-outs stand apart in the source and are kept apart here.

As for `CN[C@@H]1CN(c2ccc3c(=O)c(C(=O)O)cn(-c4nc(F)cs4)c3n2)C[C@H]1OC` (relative stereo) [Compound 16], the IC50 in [1] is 0.322 µg/mL (≈ 0.768 µM); in assay [2] it was 0.126 µg/mL (≈ 0.3 µM); with HMV2 human melanoma, 0.181 µg/mL (≈ 0.432 µM); in assay [5] it was 0.0798 µg/mL (≈ 0.19 µM); in [6], 0.148 µg/mL (≈ 0.353 µM); with A427 human lung cancer, 0.145 µg/mL (≈ 0.346 µM). The IC50 is 0.0344 µg/mL (≈ 0.082 µM) in assay [7] and 0.132 µg/mL (≈ 0.315 µM) in the assay on C33A human cervix cancer. Moreover, the inhibition in vivo at 3.13 mg/kg in assay [3] (3.13 mg/kg once a day) was 77%. Also, the ILS at 3.13 mg/kg was 20 to 74% in assay [4] (setting [8]) and 38% in assay [4] (setting [11]). The ILS at 12.5 mg/kg is over 75% in assay [4] (setting [9]) and 138% in [4] (setting [12]). For the same compound, the figures for the ILS at 50 mg/kg in assay [4] (setting [10]) and in assay [4] (setting [13]) were over 75% and 238%, respectively.
On to `CN[C@@H]1CN(c2ccc3c(=O)c(C(=O)O)cn(-c4nccs4)c3n2)C[C@H]1OC.Cl` (single isomer, unassigned) [Compound 1-3, (-)-1,4-Dihydro-7-(trans-3-methoxy-4-methylamino-1-pyrrolidinyl)-4-oxo-1-(2-thiazolyl)-1,8-naphthyridine-3-carboxylic acid hydrochloride], for which the IC50 came out at 0.503 µg/mL in [1]; 0.208 µg/mL in [2]; 0.234 µg/mL with HMV2 human melanoma; 0.11 µg/mL in assay [5]; 0.222 µg/mL in assay [6]; 0.107 µg/mL with A427 human lung cancer. Further, the IC50 in assay [7] was determined as 0.02 µg/mL; in the assay on C33A human cervix cancer it was 0.148 µg/mL. Also, the inhibition in vivo at 1.56 mg/kg in [3] is 50%. Further, in [3] (2.21 mg/kg once a day), the inhibition in vivo at 2.21 mg/kg came out at 75%. The ILS at 50 mg/kg in assay [4] (setting [10]) is over 75%; in [4] (setting [14]), over 275%; in [4] (setting [13]) it was 200%. In addition, the Evaluation result in assay [4] (NCI criterion, 3.13 mg/kg) is “+ (20 to 74%: + (effective))”; in assay [4] (NCI criterion, 6.25 mg/kg) it was “++ (ILS=75% or higher: ++ (remarkably effective))”; in [4] (NCI criterion, 12.5 mg/kg), “++ (ILS=75% or higher: ++ (remarkably effective))”; in assay [4] (NCI criterion, 25 mg/kg) it was “++ (ILS=75% or higher: ++ (remarkably effective))”. Further, the “ILS (%) (in solution)” value in [4] (3.13 mg/kg, days 1 and 5, in solution) is 63%; in [4] (6.25 mg/kg, days 1 and 5, in solution), 88%; in assay [4] (12.5 mg/kg, days 1 and 5, in solution), 138%; in assay [4] (25 mg/kg, days 1 and 5, in solution), 200%. Besides, the “ILS (%) (in suspension)” value in assay [4] (3.13 mg/kg, days 1 and 5, in suspension) came out at 63%; in assay [4] (12.5 mg/kg, days 1 and 5, in suspension), 125%.
For `CNC1CCN(c2ccc3c(=O)c(C(=O)O)cn(-c4nccs4)c3n2)C1` (centres unmarked) [Compound 6], the IC50 in assay [1] stood at 0.381 µg/mL (≈ 1.03 µM); in [2] it was 0.0987 µg/mL (≈ 0.266 µM); in the assay with HMV2 human melanoma, 0.122 µg/mL (≈ 0.328 µM); in assay [5], 0.0622 µg/mL (≈ 0.167 µM); in assay [6] it was 0.16 µg/mL (≈ 0.431 µM); in the assay with A427 human lung cancer, 0.0832 µg/mL (≈ 0.224 µM). Also, the IC50 in assay [7] was 0.0105 µg/mL (≈ 0.0283 µM); with C33A human cervix cancer it was 0.156 µg/mL (≈ 0.42 µM). Besides, the inhibition in vivo at 1.56 mg/kg in [3] came out at 71%. The figures for the ILS at 1.56 mg/kg in assay [4] (setting [10]) and in assay [4] (setting [14]) were 20 to 74% and 63%, respectively. Besides, the ILS at 3.13 mg/kg in assay [4] (setting [8]) was over 75%; in assay [4] (3.13 mg/kg, days 1 and 5, in solution, read-out: ILS (%) (in solution)), 100%; in [4] (setting [11]), 100%. The ILS at 6.25 mg/kg was over 75% in assay [4] (NCI criterion, 6.25 mg/kg, read-out: Evaluation); 138% in assay [4] (6.25 mg/kg, days 1 and 5, in solution, read-out: ILS (%) (in solution)). Also, the ILS at 12.5 mg/kg in [4] (setting [9]) is over 75%; in assay [4] (12.5 mg/kg, days 1 and 5, in solution, read-out: ILS (%) (in solution)), 150%; in assay [4] (setting [12]), 200%. Also, the ILS at 25 mg/kg in [4] (NCI criterion, 25 mg/kg, read-out: Evaluation) is over 75%; in assay [4] (25 mg/kg, days 1 and 5, in solution, read-out: ILS (%) (in solution)), 225%. Besides, the ILS at 50 mg/kg is over 75% in assay [4] (setting [10]) and over 275% in assay [4] (setting [13]).
As for `Cl.NC1CCN(c2ccc3c(=O)c(C(=O)O)cn(-c4nc(F)cs4)c3n2)C1` (centres unmarked) [Compound 8, 7-(3-Amino-1-pyrrolidinyl)-1-(4-fluoro-2-thiazolyl)-1,4-dihydro-4-oxo-1,8-naphthyridine-3-carboxylic acid hydrochloride], the IC50 in assay [1] worked out at 0.323 µg/mL; in assay [2], 0.0494 µg/mL; in the assay on HMV2 human melanoma, 0.0578 µg/mL; in assay [5], 0.0285 µg/mL; in assay [6], 0.143 µg/mL; with A427 human lung cancer, 0.0625 µg/mL. The IC50 in assay [7] came to 0.00413 µg/mL; in the assay on C33A human cervix cancer, 0.0712 µg/mL. Moreover, the inhibition in vivo at 0.39 mg/kg in assay [3] (0.39 mg/kg once a day) amounted to 57%. The inhibition in vivo at 1.56 mg/kg in assay [3] is 91%. For the same compound, the ILS at 0.78 mg/kg in [4] (setting [10]) was over 75%; in assay [4] (setting [13]), 75%. Also, the figures for the ILS at 3.13 mg/kg in [4] (setting [8]) and in [4] (setting [11]) were over 75% and 175%, respectively. In addition, the ILS at 12.5 mg/kg in assay [4] (setting [9]) was over 75%; in assay [4] (setting [12]) it was over 275%.
